Measured values from ChEMBL document CHEMBL1208782, “Synthesis and pharmacological validation of a novel series of non-steroidal FXR agonists” (Bioorg Med Chem Lett, 2010).

Assays:
Assay type in all cases: functional, cell-based
[1] = target: T1, Androgen receptor (Homo sapiens, UniProt P10275); assay: Agonist activity at androgen receptor-LBD expressed in HEK293 cells assessed as Gal4-DBD interaction by cellular mammalian one hybrid assay
T1 sequence (P10275 whole entry): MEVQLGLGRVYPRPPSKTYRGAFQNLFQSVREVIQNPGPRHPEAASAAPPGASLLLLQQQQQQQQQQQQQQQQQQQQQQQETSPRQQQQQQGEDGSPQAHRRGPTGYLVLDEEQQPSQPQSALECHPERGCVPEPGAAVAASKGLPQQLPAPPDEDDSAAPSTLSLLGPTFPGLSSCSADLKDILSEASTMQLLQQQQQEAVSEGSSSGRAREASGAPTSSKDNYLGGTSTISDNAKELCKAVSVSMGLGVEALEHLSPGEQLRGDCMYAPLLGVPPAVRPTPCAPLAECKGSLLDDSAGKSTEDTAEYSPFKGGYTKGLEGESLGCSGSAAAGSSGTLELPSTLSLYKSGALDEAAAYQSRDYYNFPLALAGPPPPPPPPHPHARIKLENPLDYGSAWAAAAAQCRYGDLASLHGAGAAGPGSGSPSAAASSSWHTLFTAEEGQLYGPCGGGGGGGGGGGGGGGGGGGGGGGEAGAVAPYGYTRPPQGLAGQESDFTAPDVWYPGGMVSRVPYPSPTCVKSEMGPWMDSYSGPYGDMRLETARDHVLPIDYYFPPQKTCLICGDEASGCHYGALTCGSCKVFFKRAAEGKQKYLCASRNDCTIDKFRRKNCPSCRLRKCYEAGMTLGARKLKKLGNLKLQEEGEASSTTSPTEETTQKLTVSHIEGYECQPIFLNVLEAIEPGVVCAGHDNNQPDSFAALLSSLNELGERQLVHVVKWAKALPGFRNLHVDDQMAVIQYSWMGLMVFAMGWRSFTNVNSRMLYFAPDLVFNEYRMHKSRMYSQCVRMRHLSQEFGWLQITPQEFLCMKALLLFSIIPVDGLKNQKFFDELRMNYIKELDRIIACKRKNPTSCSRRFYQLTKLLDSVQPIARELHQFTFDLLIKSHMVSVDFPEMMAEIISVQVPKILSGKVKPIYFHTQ

[2] = target: T2, Retinoic acid receptor beta (Homo sapiens, UniProt P10826); assay: Agonist activity at RARbeta-LBD expressed in HEK293 cells assessed as Gal4-DBD interaction by cellular mammalian one hybrid assay
T2 sequence (P10826 whole entry): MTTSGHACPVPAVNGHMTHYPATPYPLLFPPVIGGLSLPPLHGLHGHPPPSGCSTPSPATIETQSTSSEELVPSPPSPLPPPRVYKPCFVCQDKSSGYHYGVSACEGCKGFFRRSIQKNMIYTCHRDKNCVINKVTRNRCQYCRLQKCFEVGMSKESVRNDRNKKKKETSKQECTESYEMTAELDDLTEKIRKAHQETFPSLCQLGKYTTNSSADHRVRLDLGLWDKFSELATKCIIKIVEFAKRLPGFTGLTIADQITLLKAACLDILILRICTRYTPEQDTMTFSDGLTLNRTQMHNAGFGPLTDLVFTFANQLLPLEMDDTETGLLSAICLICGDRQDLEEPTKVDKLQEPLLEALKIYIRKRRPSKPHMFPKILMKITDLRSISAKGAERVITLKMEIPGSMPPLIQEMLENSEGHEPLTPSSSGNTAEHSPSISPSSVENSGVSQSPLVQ

[3] = target: T3, Bile acid receptor (Homo sapiens, UniProt Q96RI1); assay: Agonist activity at human full length FXR transfected in HEK293 cells coexpressing pTRexDest/pGL2promotor assessed as luciferase activity by direct reporter cellular assay; settings: read-out: EC50
T3 sequence (Q96RI1 whole entry): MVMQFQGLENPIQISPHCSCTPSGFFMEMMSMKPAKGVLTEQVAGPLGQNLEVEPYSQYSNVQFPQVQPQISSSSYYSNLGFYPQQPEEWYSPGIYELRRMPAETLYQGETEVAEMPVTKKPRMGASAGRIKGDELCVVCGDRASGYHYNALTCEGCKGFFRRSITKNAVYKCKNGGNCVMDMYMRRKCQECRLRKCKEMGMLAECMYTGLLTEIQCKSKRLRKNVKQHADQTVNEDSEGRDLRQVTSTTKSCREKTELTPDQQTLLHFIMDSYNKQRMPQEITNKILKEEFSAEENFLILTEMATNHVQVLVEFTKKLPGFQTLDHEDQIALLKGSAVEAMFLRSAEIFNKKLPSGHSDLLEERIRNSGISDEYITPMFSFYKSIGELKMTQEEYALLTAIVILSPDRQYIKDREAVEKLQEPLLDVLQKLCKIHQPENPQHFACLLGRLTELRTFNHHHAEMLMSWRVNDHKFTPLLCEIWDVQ

[4] = target: T4, Progesterone receptor (Homo sapiens, UniProt P06401); assay: Agonist activity at progesterone receptor-LBD expressed in HEK293 cells assessed as Gal4-DBD interaction by cellular mammalian one hybrid assay
T4 sequence (P06401 whole entry): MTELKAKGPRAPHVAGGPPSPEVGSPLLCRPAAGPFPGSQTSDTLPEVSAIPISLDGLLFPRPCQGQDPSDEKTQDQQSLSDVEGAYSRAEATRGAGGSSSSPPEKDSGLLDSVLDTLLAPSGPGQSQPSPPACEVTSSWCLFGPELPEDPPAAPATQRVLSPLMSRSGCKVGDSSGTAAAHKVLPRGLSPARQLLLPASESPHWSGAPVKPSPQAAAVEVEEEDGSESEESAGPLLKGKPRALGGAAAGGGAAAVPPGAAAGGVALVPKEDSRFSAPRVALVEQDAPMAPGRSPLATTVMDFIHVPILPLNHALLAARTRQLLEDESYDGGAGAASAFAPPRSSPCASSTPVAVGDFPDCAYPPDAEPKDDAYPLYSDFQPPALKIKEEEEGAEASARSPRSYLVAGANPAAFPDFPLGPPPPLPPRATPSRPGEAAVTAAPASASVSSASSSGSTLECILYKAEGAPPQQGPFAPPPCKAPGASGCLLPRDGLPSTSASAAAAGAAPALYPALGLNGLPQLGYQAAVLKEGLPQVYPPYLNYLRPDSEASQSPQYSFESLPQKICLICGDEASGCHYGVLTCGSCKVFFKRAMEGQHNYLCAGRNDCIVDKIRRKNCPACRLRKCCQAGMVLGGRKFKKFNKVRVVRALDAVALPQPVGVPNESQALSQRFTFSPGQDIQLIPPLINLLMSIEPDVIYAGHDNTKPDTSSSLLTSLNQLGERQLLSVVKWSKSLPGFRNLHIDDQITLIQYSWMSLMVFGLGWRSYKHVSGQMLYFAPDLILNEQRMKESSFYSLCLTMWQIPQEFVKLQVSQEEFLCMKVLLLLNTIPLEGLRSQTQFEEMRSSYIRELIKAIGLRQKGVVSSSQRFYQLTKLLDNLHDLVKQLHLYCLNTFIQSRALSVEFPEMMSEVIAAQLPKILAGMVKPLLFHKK

| EC50 [1] | EC50 [2] | EC50 [3] | EC50 [4] | Structure (SMILES) |
| --- | --- | --- | --- | --- |
| > 10 µM | > 10 µM | 0.002 µM | > 10 µM | CN(Cc1cccc(C(=O)O)c1)c1ccc(OCc2c(-c3c(Cl)cccc3Cl)noc2C2CC2)nc1C(F)(F)F |
| > 10 µM | > 10 µM | 0.015 µM | > 10 µM | CC(C)c1onc(-c2c(Cl)cccc2Cl)c1COc1ccc(N(C)Cc2ccc(C(=O)O)cc2)c(C(F)(F)F)n1 |
| > 10 µM | > 10 µM | 0.006 µM | > 10 µM | CN(Cc1ccc(C(=O)O)cc1)c1ccc(OCc2c(-c3c(Cl)cccc3Cl)noc2C2CC2)nc1C(F)(F)F |
